Earlier results as cited in patent US8846088B2, “Melt granulation of a composition containing a calcium-containing compound” (Takeda Nycomed AS, priority 2005, dated 2014).

System: elderly patients
Conditions: annual injections of 150.000-300.000 IU

vitamin D
overall fracture rate: significant reduction in overall fracture rate
rate of hip fracture: not in the rate of hip fracture
